Laboratory results published in US6479657B1, “Crystalline 1-kestose and process for preparing the same” (Meiji Seika Kaisha, Ltd., priority 1995, dated 2002).

Key:
[1] = test system: enzyme having fructose transferase activity derived from a Penicillium microorganism; assay: Properties of the novel Penicillium enzyme: substrate specificity, inhibition, kinetics; type: biochemical, Penicillium roqueforti
Procedure: In the case of an enzyme derived from a Penicillium microorganism, the quantity of enzyme which can produce 1 μmol of 1-kestose in 1 minute at 50° C., pH 7.0, and a substrate (sucrose) concentration of 10 wt %; and The enzyme is prepared from a Penicillium microorganism, preferably from Penicillium roqueforti, specifically Penicillium roqueforti IAM7254 strain. The enzyme can be recovered from a culture by incubating the microorganism in a suitable medium (e.g., a medium containing 5 to 30% of sucrose, 1 to 10% of corn steep liquor, 0.05 to 0.3% of urea, 0.2 to 3.0 of potassium dihydrogenphosphate, and 0.01 to 0.1% of magnesium sulfate heptahydrate), at initial pH of 6.5 to 7.5 and a temperature of 25 to 30° C. for 2 to 5 days.

[2] = test system: enzyme having fructose transferase activity derived from a Scopulariopsis microorganism; assay: Properties of the novel Scopulariopsis enzyme: substrate specificity, inhibition, kinetics; type: biochemical, Scopulariopsis brevicaulis
Procedure: In the case of an enzyme derived from a Scopulariopsis microorganism, the quantity of enzyme which can produce 1 μmol of 1-kestose in 1 minute at 40° C., pH 7.0, and a substrate (sucrose) concentration of 10 wt %.
The enzyme is prepared from a Scopulariopsis microorganism, preferably from Scopulariopsis brevicaulis, specifically Scopulariopsis brevicaulis IF04843 strain.
The enzyme can be recovered from a culture by incubating the microorganism in a suitable medium (e.g., a medium containing 3.0 to 10.0% of sucrose, 5 to 15% of corn steep liquor, 0.05 to 0.3% of urea, 0.2 to 3.0 of potassium dihydrogenphosphate, and 0.01 to 0.1% of magnesium sulfate heptahydrate), at initial pH of 6.5 to 7.5 and a temperature of 20 to 30° C. for 3 to 8 days. The enzyme is prepared preferably by recovering the fungus body from the culture using a centrifuge such as a basket type; suspending the recovered fungus body in a buffer at pH 7.0; obtaining a crude enzyme suspension by an ultrasonic treatment and a membrane treatment; then treating with anion exchange, gel filtration, chromatographic focusing, or other procedure on the crude enzyme suspension.
The freeze-dried fungus body powder prepared above was suspended in a McIlvaine buffer (pH 7.0), and ultrasonically crushed. The crushed cells were ultrafiltrated through a membrane filter (cutoff molecular weight: 100,000).

[3] = Decomposition of 1-kestose in the decolorizing and desalting procedure; type: physicochemical; details: activated carbon at 60° C. for 20 minutes, cation and anion exchange resin
Procedure: (§1) The deactivated solution was filtered to remove any impurities such as the fungus body and the activated carbon. Then, activated carbon (Taiko activated carbon S-W50) was added to the filtrate at a rate of 0.5% of the solids content, and stirred at a temperature of 60° C. for 20 minutes to decolorize again. After filtrating to remove the activated carbon in the same manner as above, the solution was desalted through cation and anion exchange resin, then filtrated again to make a colorless and transparent 1-kestose solution (chromatographic sample).
as §1, with “per” for “of the”
The deactivated solution was filtered to remove any impurities such as the fungus body and the activated carbon. […]

SMILES	Substrate specificity (enzyme acts on sugar) [1]	Substrate specificity (enzyme acts on sugar) [2]	decomposition of 1-kestose [3]
OC[C@H]1O[C@@](CO)(OC[C@@]2(O[C@H]3O[C@H](CO)[C@@H](O)[C@H](O)[C@H]3O)O[C@H](CO)[C@@H](O)[C@@H]2O)[C@@H](O)[C@@H]1O [Example 1-kestose, 1-kestose]	effectively acts on	effectively acts on	hardly observed
OC[C@H]1O[C@H](O[C@H]2[C@H](O)[C@@H](O)C(O)O[C@@H]2CO)[C@H](O)[C@@H](O)[C@@H]1O (mixture of isomers) [maltose]	not on	not on	
O=C(CO)[C@@H](O[C@H]1O[C@H](CO)[C@@H](O)[C@H](O)[C@H]1O)[C@H](O)[C@H](O)CO [turanose]	not on	not on	

Results, then the compound that gave them:

Substrate specificity (enzyme acts on sugar) [1]	Substrate specificity (enzyme acts on sugar) [2]	decomposition of 1-kestose [3]	SMILES
effectively acts on	effectively acts on		OC[C@H]1O[C@@](CO)(O[C@H]2O[C@H](CO)[C@@H](O)[C@H](O)[C@H]2O)[C@@H](O)[C@@H]1O [sucrose]
effectively acts on	effectively acts on		OC[C@H]1O[C@H](OC[C@H]2O[C@H](O[C@]3(CO)O[C@H](CO)[C@@H](O)[C@@H]3O)[C@H](O)[C@@H](O)[C@@H]2O)[C@H](O)[C@@H](O)[C@H]1O [raffinose]
